The IC50 is the concentration that inhibits the measured activity by half.

Data on 2 molecules can be found in patent US20030082525A1, “Five-Helix protein” (priority 1999, published 2003).

Experiment [1] has as its system HIV-1 envelope-mediated membrane fusion (CHO cells expressing gp160 and Tat with HELA cells expressing CD4 and coreceptors). The conditions noted are these: number of syncytia; Chan et al. 1998; read-out: IC50 of C34 in cell-cell fusion assay; cited from earlier work.
In experiment [2] the target is His-tagged C-peptide C37-H6 (C-peptide region of gp41) (Human immunodeficiency virus type 1 group M subtype B, UniProt P04578). The conditions noted are these: 150 μM C34 added to 16 μM 5-Helix and 30 μM C37-H6.
Procedure: The solution was added to 10 ml of Ni-NTA agarose and incubated at room temperature for 10 minutes. After the unbound supernatant was removed, the beads were washed twice with 1 ml TBS and then eluted with 500 mM imidazole. The Ni-bound and unbound samples were run on a 16.5% Tris-Tricine polyacrylamide gel (Biorad) and stained with Gel-code Blue (Pierce).
Experiment [3] deals with HIV-1 envelope-mediated membrane fusion (CHO cells expressing gp160 and Tat with HELA cells expressing CD4 and coreceptors). The experiment is described as follows: Cell-cell fusion assay (syncytia formation). Format: cell-based. The conditions noted are these: 200 nM 5-Helix or 6-Helix mixed with C34 at 100, 166, 190 and 210 nM. Here is the method:
Assays were carried out to assess the ability of 5-Helix to interact with the C-region of gp41 and inhibit function of the fusion protein. This inhibition of membrane fusion by 5-Helix and 6-Helix was assessed using a cell-based assay. Proteins 5-Helix and 6-Helix are serially diluted in modified DMEM media with 5% FCS and aliquoted into slide chambers. HELA cells (4×10^4) expressing CD4 and coreceptors and containing a β-galactosidase gene under the control of the Tat promoter are added. CHO cells (2×10^4) expressing gp160 (precursor protein to gp120/gp41) and Tat are also added. The 400 μl miniculture is incubated at 37° C. for 8 to 24 hours; fused cells (syncytia) will transcribe and translate β-galactosidase. The cells are fixed in gluteraldehyde and exposed to X-gal/Fe solution for one hour. Syncytia that contain β-galactosidase turn blue-green. […]
All data in FIGS. 3A-3C were generated using His-tagged 5-Helix (see Example 1). […] Following two days of incubation at 37° C., the cells were harvested in […] lysis buffer (Luciferase Assay System, Promega), of which […] was analyzed per manufacturer's protocol. The IC50 values were calculated by fitting the 5-Helix titration data to a Langmuir function [normalized luciferase activity=1/(1+[5−Helix]/IC50)].

Experiment [4] has as its target HIV gp41 (from gp160, strain not stated in the assay text) (HIV-1). Briefly: cell-based or functional assay.

As to “C34: Peptide corresponding to the C-peptide region of HIV gp41 (W628 to L661); chemically synthesized, no His-tag”, the IC50 in experiment [1] was 0.55 ± 0.03 nM. Besides, in experiment [2], the “Competition of untagged C-peptide for 5-Helix/C37-H6 precipitation (in words)” value was “substantially reduces the amount of precipitated 5-Helix”. The “Syncytia formation in mixing (competition) experiments (in words)” value in experiment [3] is given as “blocks all syncytia formation”.
Take GGHTTWMEWDREINNYTSLIHSLIEESQNQQEKNEQELLGGHHHHHH (modifications not checked) [His-tagged C-peptide C37-H6]: the IC50, cell-cell fusion assay in experiment [4] amounted to 1 nM.
